Laboratory results published in the supplement of paper PMC5412046.
Where a name gives a salt, the structure may show the parent alone.

Assays:
SB.msgc-1 [1] = experiment: viability at highest tested concentration (MAXR) relative to DMSO; higher = less cytotoxic; conditions: SB.msgc-1 (sporadic gastric cancer)
Procedure, shortened: (§1)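 Using a pintool, 23 nL of compound in DMSO was transferred at 11 threefold-diluted concentrations onto patient-derived gastric cancer cells, hereditary or sporadic, plated at 500 cells in 5 μL medium per 1536 well. CellTiter-Glo luminescence was read after 48 h. Each value is viability normalised to DMSO, either at the highest concentration or as trapezoidal area under the curve.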

SB.mhdgc-1 [2] = experiment: as above; conditions: SB.mhdgc-1 (hereditary c.1380delA CDH1 gastric cancer)
Procedure, shortened: as §1

SB.msgc-1 [3] = experiment: area under the dose-response curve of % viability (trapezoidal, 11 doses) (% viability x log10 concentration); higher = less cytotoxic; conditions: SB.msgc-1 (sporadic gastric cancer)
Procedure, shortened: as §1

SB.mhdgc-1 [4] = experiment: as above; conditions: SB.mhdgc-1 (hereditary c.1380delA CDH1 gastric cancer)
Procedure, shortened: as §1

SMILES	viability (SB.msgc-1 [1]) [%]	viability (SB.mhdgc-1 [2]) [%]	area under the dose-response curve (SB.msgc-1 [3])	area under the dose-response curve (SB.mhdgc-1 [4])
CCC(=O)N1CCN(CC1)C2=C(C=C(C=C2)N3C(=O)\C=C/C4=C3C5=CC(=CC=C5N=C4)C6=CN=C7C=CC=CC7=C6)C(F)(F)F [Torin-1] (top concentration 46.0829 µM)	52.9	28.6	426	299
NC1=NC=C(C=C1)C2=CC=C3N=CC\4=C(N(C(=O)\C=C4)C5=CC(=CC=C5)C(F)(F)F)C3=C2 [Torin-2] (top concentration 46.0829 µM)	21.2	7.84	315	209
CC(C)C[C@@H](C(=O)N[C@H](C(=O)OC1CCCC1)c1ccccc1)[C@H](O)C(=O)NO [Tosedostat] (top concentration 46.0829 µM)	57.9	45.4	480	495
Cc1cc(Nc2cc(N3CCN(C)CC3)nc(Sc3ccc(NC(=O)C4CC4)cc3)n2)[nH]n1 [Tozasertib] (top concentration 46.0829 µM)	97.8	44	525	408
CN1C(=O)C(=C/2N(C(=O)N(C3CC3)C(=O)C2=C1/NC4=CC=C(I)C=C4F)C5=CC=CC(=C5)NC(C)=O)\C [Trametinib] (top concentration 46.0829 µM)	62.4	35.8	457	410
NCC1CCC(C(=O)O)CC1 (stereo not drawn) [Tranexamic acid] (top concentration 46.0829 µM)	108	114	517	610
COc1ccc(/C=C/C(=O)Nc2ccccc2C(=O)O)cc1OC [Tranilast] (top concentration 46.0829 µM)	88.9	102	530	467
NC1CC1c1ccccc1 (stereo not drawn) [Tranylcypromine] (top concentration 46.0829 µM)	109	106	554	551
CC(C)OC(=O)CCC/C=C\C[C@@H]1[C@@H](/C=C/[C@@H](O)COc2cccc(C(F)(F)F)c2)[C@H](O)C[C@@H]1O [Travoprost] (top concentration 46.0829 µM)	97	70.6	535	523
ClC1=CC(=CC=C1)N2CCN(CCCN3\N=C4\C=C/C=C\N4C3=O)CC2 [Trazodone hydrochloride] (top concentration 46.0829 µM)	82.2	82.2	530	486
CC1=C(/C=C/C(C)=C/C=C/C(C)=C/C(=O)O)C(C)(C)CCC1 [Tretinoin] (top concentration 46.0829 µM)	42.4	75.3	467	445
CC1(C)O[C@@H]2C[C@H]3[C@@H]4CCC5=CC(=O)C=C[C@]5(C)[C@@]4(F)[C@@H](O)C[C@]3(C)[C@]2(C(=O)CO)O1 [Triamcinolone acetonide] (top concentration 46.0829 µM)	107	96.5	585	462
N[S+](=O)([O-])c1cc2c(cc1Cl)NC(C(Cl)Cl)N[S+]2(=O)[O-] (stereo not drawn) [Trichlormethiazide] (top concentration 46.0829 µM)	114	131	539	523
CC(/C=C/C(=O)NO)=C\[C@@H](C)C(=O)c1ccc(N(C)C)cc1 [Trichostatin A] (top concentration 46.0829 µM)	2.2	10.6	330	413
CN1\N=C(N)/C2=C[N]([C@@H]3O[C@H](CO[P](O)(O)=O)[C@@H](O)[C@H]3O)C4=C2C1=NC=N4 [Triciribine phosphate] (top concentration 46.0829 µM)	44.5	55.1	369	477
OC[C@H]1O[C@H](C[C@@H]1O)N2/C=C(C(=O)NC2=O)/C(F)(F)F [Trifluridine] (top concentration 46.0829 µM)	53.2	40	513	433
C[C@]12CC[C@H]3[C@@H](CC[C@@]45O[C@@H]4C(O)=C(C#N)C[C@]35C)[C@@H]1CC[C@@H]2O [Trilostane] (top concentration 46.0829 µM)	39.4	13	374	478
COc1cc(NCc2ccc3nc(N)nc(N)c3c2C)cc(OC)c1OC [Trimetrexate] (top concentration 46.0829 µM)	12.2	18.7	302	345
CC1=CC2=C(O1)C(=C3OC(=O)\C=C(C)/C3=C2)C [Trioxsalen] (top concentration 46.0829 µM)	60.7	36	542	460
CC/1=C(\O)C(=O)\C=C2/C1=C/C=C3\[C@@]2(C)CC[C@@]4(C)[C@@H]5C[C@@](C)(CC[C@]5(C)CC[C@]34C)C(O)=O [Tripterin] (top concentration 46.0829 µM)	2.44	5.12	353	448
CC(C)[C@]12O[C@H]1[C@@H]3O[C@@]34[C@@]5(C)CC\C6=C(COC6=O)/[C@@H]5C[C@@H]7O[C@]47[C@@H]2O [Triptolide] (top concentration 46.0829 µM)	48	61.6	235	302
Cc1c(C)c2c(c(C)c1O)CCC(C)(COc1ccc(CC3SC(=O)NC3=O)cc1)O2 (stereo not drawn) [Troglitazone] (top concentration 46.0829 µM)	69.9	98.6	471	544
